Laboratory results published in patent publication US10308639B2, “Phosphatidylinositol 3-kinase inhibitors” (Gilead Sciences, Inc., priority 2014, dated 2019).
Like-named read-outs stand apart in the source and are kept apart here.

Tests used:
Format in all cases: biochemical
PI3Kβ = target: T1, PI3Kβ (Homo sapiens, UniProt P42338); experiment: TR-FRET enzymatic activity assay, PI3Kβ
T1 construct: made in house

PI3Kγ = target: T2, PI3Kγ (Homo sapiens, UniProt P48736); experiment: TR-FRET enzymatic activity assay, PI3Kγ; details: read-out: PI3Kγ IC50
T2 construct: made in house
In short: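 Enzymatic activity against the PI3K isoforms was measured using a time-resolved fluorescence resonance energy transfer (TR-FRET) assay.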

PI3Kδ = target: T3, PI3Kδ (Homo sapiens, UniProt O00329); experiment: TR-FRET enzymatic activity assay, PI3Kδ
T3 construct: made in house

[1] = Table 2, TR-FRET, 2x Km ATP, 30 minutes at 25° C.

T1 sequence (P42338 whole entry): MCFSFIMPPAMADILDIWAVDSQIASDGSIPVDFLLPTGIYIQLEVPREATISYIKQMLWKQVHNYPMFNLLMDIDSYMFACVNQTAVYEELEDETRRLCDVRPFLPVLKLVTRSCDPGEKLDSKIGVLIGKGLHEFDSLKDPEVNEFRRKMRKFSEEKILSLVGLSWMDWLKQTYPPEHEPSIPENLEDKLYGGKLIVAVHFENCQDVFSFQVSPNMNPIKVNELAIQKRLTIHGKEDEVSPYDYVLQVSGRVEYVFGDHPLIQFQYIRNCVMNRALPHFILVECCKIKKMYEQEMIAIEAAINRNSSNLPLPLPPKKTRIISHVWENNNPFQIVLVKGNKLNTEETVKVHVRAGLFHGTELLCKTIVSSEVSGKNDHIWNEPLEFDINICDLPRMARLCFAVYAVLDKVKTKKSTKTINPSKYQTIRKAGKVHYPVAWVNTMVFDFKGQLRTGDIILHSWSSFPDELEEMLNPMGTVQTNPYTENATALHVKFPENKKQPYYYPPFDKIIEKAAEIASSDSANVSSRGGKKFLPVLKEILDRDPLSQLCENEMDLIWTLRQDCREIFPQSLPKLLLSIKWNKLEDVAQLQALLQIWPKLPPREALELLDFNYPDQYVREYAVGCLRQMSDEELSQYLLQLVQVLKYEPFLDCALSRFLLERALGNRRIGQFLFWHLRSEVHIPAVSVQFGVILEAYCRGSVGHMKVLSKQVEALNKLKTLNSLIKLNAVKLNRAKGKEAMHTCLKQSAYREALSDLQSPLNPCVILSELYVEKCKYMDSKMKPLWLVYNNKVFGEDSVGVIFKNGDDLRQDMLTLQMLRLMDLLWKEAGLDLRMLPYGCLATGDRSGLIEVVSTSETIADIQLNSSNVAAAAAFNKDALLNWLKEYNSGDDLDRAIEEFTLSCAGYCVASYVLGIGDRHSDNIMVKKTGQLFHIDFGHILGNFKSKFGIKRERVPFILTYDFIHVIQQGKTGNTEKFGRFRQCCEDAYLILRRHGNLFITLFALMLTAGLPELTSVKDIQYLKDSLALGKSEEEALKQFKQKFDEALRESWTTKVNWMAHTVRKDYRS
T1 sequence (P27986 whole entry partner): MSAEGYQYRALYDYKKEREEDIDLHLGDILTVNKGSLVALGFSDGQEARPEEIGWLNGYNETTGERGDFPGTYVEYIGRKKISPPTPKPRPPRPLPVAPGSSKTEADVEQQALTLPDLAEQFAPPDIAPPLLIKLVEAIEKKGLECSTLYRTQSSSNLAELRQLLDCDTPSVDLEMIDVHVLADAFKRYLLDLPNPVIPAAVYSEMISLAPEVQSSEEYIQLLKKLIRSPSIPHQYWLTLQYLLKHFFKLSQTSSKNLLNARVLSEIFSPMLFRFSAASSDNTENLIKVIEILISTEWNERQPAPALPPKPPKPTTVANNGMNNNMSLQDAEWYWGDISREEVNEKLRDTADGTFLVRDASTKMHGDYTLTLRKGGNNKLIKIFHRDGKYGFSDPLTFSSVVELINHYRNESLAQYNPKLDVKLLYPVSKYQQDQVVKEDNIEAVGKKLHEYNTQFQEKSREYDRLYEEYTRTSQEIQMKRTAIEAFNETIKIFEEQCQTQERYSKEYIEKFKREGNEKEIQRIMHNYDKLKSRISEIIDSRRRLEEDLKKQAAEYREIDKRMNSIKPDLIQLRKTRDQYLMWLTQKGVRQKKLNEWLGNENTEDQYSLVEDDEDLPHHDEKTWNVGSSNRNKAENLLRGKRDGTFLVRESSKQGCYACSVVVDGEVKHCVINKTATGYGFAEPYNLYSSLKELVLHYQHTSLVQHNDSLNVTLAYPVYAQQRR
T3 sequence (O00329 whole entry): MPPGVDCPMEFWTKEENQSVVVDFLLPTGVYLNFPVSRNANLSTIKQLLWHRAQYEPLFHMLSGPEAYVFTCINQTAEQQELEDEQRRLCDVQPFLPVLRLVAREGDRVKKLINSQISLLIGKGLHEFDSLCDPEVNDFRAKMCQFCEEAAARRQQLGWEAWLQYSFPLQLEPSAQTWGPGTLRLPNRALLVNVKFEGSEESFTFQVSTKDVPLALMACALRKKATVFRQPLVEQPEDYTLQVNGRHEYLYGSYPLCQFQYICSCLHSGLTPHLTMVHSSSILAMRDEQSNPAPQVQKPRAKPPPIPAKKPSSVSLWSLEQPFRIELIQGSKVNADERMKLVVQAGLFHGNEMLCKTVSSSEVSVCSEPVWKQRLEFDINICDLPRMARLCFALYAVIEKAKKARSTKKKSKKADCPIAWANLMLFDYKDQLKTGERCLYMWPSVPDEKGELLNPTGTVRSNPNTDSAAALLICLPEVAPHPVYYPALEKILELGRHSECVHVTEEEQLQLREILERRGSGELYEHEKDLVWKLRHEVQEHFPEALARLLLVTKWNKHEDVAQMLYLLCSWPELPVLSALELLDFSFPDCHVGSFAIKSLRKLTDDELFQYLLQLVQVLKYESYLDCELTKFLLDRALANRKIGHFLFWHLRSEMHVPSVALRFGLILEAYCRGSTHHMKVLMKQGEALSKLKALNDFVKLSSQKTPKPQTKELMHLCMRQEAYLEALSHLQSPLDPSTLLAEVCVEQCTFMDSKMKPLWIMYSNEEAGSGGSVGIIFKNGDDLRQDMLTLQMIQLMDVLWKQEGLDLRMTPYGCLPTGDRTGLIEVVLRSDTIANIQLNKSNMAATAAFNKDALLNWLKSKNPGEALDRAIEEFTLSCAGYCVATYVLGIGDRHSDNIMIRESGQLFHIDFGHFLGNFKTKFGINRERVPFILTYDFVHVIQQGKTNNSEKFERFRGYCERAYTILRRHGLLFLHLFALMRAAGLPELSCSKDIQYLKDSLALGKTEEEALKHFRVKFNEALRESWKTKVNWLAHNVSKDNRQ
T3 sequence (P27986 whole entry partner): as the sequence (P27986 whole entry partner) above
T2 sequence (P48736 whole entry): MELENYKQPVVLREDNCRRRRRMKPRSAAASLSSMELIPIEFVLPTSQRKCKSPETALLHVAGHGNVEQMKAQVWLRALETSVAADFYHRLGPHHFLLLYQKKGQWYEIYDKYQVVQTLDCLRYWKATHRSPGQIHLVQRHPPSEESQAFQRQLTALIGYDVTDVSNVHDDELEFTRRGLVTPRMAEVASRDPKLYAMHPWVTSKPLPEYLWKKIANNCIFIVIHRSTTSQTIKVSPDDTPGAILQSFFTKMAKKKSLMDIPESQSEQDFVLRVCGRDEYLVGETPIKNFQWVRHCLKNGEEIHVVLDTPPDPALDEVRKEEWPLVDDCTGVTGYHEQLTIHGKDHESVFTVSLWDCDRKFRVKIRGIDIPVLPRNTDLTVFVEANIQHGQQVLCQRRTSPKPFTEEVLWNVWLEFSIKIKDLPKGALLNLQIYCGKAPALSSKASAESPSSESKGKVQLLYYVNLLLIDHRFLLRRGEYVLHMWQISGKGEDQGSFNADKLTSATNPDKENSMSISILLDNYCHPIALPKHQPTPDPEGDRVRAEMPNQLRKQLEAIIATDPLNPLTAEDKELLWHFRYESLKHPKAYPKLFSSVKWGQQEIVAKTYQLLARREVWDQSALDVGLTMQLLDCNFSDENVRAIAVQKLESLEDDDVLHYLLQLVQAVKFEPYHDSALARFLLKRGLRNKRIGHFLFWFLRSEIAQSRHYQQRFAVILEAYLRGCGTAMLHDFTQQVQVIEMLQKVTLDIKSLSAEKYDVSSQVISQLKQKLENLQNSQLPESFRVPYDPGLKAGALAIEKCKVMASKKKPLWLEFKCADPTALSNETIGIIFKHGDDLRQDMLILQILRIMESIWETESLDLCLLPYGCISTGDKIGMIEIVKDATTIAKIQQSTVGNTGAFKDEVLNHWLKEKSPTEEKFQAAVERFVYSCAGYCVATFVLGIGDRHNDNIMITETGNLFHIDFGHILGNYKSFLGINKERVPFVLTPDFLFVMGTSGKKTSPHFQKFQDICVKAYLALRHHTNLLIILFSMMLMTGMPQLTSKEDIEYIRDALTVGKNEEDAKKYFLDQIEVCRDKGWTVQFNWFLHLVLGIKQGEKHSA

Row | IC50 (PI3Kβ; [1]) | IC50 (PI3Kγ; [1]) | IC50 (PI3Kδ; [1]) | IC50 (PI3Kγ) | SMILES | IC50 (PI3Kβ; Table 2a, same assay) | IC50 (PI3Kγ; Table 2a, same assay) | IC50 (PI3Kδ; Table 2a, same assay)
1 | – | – | – | – | Cc1c[nH]nc1-n1c([C@@H](Nc2nc(N)nc(N)c2C#N)C2CC2)nc2cccc(Cl)c2c1=O [Compound 247, (S)-2,4-diamino-6-(((5-chloro-3-(4-methyl-1H-pyrazol-3-yl)-4-oxo-3,4-dihydroquinazolin-2-yl)(cyclopropyl)methyl)amino)pyrimidine-5-carbonitrile] | 70 nM | 730 nM | 4 nM
2 | 2 nM | 560 nM | 1 nM | – | C[C@H](Nc1nc(N)nc(N)c1C#N)c1nc2ccc(F)cc2c(=O)n1-c1cc[nH]n1 [Compound 115, (S)-2,4-diamino-6-((1-(6-fluoro-4-oxo-3-(1H-pyrazol-3-yl)-3,4-dihydroquinazolin-2-yl)ethyl)amino)pyrimidine-5-carbonitrile] | – | – | –
3 | – | – | – | – | C[C@H](Nc1nc(N)nc(N)c1Cl)c1nc2c(C#N)cc(F)cc2c(=O)n1-c1cc[nH]n1 [Compound 271, (S)-2-(1-((2,6-diamino-5-chloropyrimidin-4-yl)amino)ethyl)-6-fluoro-4-oxo-3-(1H-pyrazol-3-yl)-3,4-dihydroquinazoline-8-carbonitrile] | 28 nM | > 10000 nM | 18 nM
4 | – | – | – | – | Cc1c[nH]nc1-n1c([C@@H](Nc2nc(N)nc(N)c2Cl)C2CC2)nc2cccc(Cl)c2c1=O [Compound 248, (S)-5-chloro-2-(cyclopropyl((2,6-diamino-5-chloropyrimidin-4-yl)amino)methyl)-3-(4-methyl-1H-pyrazol-3-yl)quinazolin-4(3H)-one] | 650 nM | 8600 nM | 45 nM
5 | – | – | – | – | C[C@H](Nc1ncnc(N)c1Cl)c1nc2cccc(Cl)c2c(=O)n1-c1cc[nH]n1 [Compound 164, (S)-2-(1-((6-amino-5-chloropyrimidin-4-yl)amino)ethyl)-5-chloro-3-(1H-pyrazol-3-yl)quinazolin-4(3H)-one] | 3 nM | 4300 nM | 0.6 nM
6 | 570 nM | – | 65 nM | > 10000 nM | CC[C@H](Nc1nc(F)nc2[nH]cnc12)c1nc2c(Cl)ccc(Cl)c2c(=O)n1-c1cn[nH]c1 [Compound 55, (S)-5,8-dichloro-2-(1-((2-fluoro-9H-purin-6-yl)amino)propyl)-3-(1H-pyrazol-4-yl)quinazolin-4(3H)-one] | – | – | –
7 | – | – | – | – | C[C@H](Nc1nc(N)nc(N)c1Cl)c1nc2cc(F)cc(F)c2c(=O)n1-c1cc[nH]n1 [Compound 236, (S)-2-(1-((2,6-diamino-5-chloropyrimidin-4-yl)amino)ethyl)-5,7-difluoro-3-(1H-pyrazol-3-yl)quinazolin-4(3H)-one] | 120 nM | > 10000 nM | 120 nM
8 | – | – | – | – | C[C@H](Nc1nc(N)nc(N)c1Cl)c1nc2c(Cl)cc(F)cc2c(=O)n1-c1c[nH]cn1 [Compound 284, (S)-8-chloro-2-(1-((2,6-diamino-5-chloropyrimidin-4-yl)amino)ethyl)-6-fluoro-3-(1H-imidazol-4-yl)quinazolin-4(3H)-one] | 340 nM | > 10000 nM | 20 nM
9 | 170 nM | 4700 nM | 22 nM | – | CC[C@H](Nc1ncnc2scnc12)c1nc2c(Cl)ccc(Cl)c2c(=O)n1-c1cn[nH]c1 [Compound 39, (S)-5,8-dichloro-3-(1H-pyrazol-4-yl)-2-(1-(thiazolo[5,4-d]pyrimidin-7-ylamino)propyl)quinazolin-4(3H)-one] | – | – | –
10 | – | – | – | – | C[C@H](Nc1nc(N)nc(N)c1Cl)c1nc2c(F)c(F)ccc2c(=O)n1-c1cc[nH]n1 [Compound 232, (S)-2-(1-((2,6-diamino-5-chloropyrimidin-4-yl)amino)ethyl)-7,8-difluoro-3-(1H-pyrazol-3-yl)quinazolin-4(3H)-one] | 260 nM | > 10000 nM | 190 nM

Row | SMILES | IC50 (PI3Kβ; [1]) | IC50 (PI3Kγ; [1]) | IC50 (PI3Kδ; [1]) | IC50 (PI3Kγ) | IC50 (PI3Kβ; Table 2a, same assay) | IC50 (PI3Kγ; Table 2a, same assay) | IC50 (PI3Kδ; Table 2a, same assay)
11 | C[C@H](Nc1nc(N)nc(N)c1Cl)c1nc2c(F)ccc(Cl)c2c(=O)n1-c1cc[nH]n1 [Compound 67, (S)-5-chloro-2-(1-((2,6-diamino-5-chloropyrimidin-4-yl)amino)ethyl)-8-fluoro-3-(1H-pyrazol-3-yl)quinazolin-4(3H)-one] | 3 nM | 2800 nM | 3 nM | – | – | – | –
